According to patent publication US11230526B1, “Cylcoalkenyl derivatives useful as agonists of the GPR120 and/or GPR40 receptors” (Janssen Pharmaceutica NV, priority 2018, dated 2022):

Biological target: T1, long form of human GPR120 (Homo sapiens, UniProt Q5NUL3)
T1 construct: host or cells: PathHunter CHO-K1 GPR120 β-Arrestin Cell Line
Experiment: Human GPR120 DiscoveRx PathHunter Beta-Arrestin assay, Procedure β-arrestin A
Type: cell-based
Summary of the method: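 PathHunter CHO-K1 cells expressing long-form human GPR120 (3000/well) were seeded overnight. They were then preincubated 60 min in HBSS with 20 mM HEPES and 0.1% BSA, pH 7.4, and exposed to compound for 90 min at 37 °C. β-Arrestin recruitment was read as β-gal complementation luminescence. EC50 came from % activity versus positive control, Hill slope fixed at 1.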

T1 sequence (Q5NUL3 1-377 isoform Q5NUL3-1): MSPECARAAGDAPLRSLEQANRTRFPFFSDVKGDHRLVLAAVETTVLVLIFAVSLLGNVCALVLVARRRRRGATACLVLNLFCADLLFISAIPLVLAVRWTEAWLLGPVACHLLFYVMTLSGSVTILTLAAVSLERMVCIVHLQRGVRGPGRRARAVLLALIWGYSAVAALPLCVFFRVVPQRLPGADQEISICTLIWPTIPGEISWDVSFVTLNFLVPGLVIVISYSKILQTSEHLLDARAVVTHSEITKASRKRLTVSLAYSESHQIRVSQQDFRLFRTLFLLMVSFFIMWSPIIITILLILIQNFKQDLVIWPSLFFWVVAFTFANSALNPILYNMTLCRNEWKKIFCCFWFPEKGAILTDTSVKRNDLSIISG
T1 sequence (P32121 whole entry partner): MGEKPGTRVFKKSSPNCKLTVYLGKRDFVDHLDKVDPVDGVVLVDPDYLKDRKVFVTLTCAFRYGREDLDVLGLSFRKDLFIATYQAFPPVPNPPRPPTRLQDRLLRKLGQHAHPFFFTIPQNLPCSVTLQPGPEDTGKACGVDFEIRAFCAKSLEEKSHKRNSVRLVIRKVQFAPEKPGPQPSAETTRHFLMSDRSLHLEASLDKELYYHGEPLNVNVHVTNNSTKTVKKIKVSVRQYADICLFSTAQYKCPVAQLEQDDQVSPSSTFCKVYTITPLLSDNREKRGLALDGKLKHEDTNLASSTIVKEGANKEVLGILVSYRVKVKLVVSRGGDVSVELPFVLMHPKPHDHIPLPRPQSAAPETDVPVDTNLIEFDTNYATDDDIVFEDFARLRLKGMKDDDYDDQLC

SMILES | EC50 [nM]
Cc1ccc(C2=C(COc3ccc(CCC(=O)O)c(C)c3C)CCC2)cc1F [Compound 80, 3-(4-((2-(3-fluoro-4-methylphenyl)cyclopent-1-en-1-yl)methoxy)-2,3-dimethylphenyl)Propanoic Acid] | 73
Cc1c(CCC(=O)O)ccc(OCC2=C(c3ccc(Cl)cc3)CC(F)(F)C2)c1C [Compound 137, 3-[4-[[2-(4-chlorophenyl)-4,4-difluoro-cyclopenten-1-yl]methoxy]-2,3-dimethyl-phenyl]Propanoic Acid] | 43
Cc1c(CCC(=O)O)ccc(OCC2=C(c3ccc(Cl)cc3)CCC(F)(F)C2)c1C [Compound 468, 3-[4-[[2-(4-chlorophenyl)-5,5-difluoro-cyclohexen-1-yl]methoxy]-2,3-dimethyl-phenyl]Propanoic Acid] | 168
Cc1c(CCC(=O)O)ccc(OCC2=C(c3ccc(Cl)cc3)CCCC2)c1C [Compound 474, 3-[4-[[2-(4-chlorophenyl)cyclohexen-1-yl]methoxy]-2,3-dimethyl-phenyl]Propanoic Acid] | 354
